# From US20230399666A1, “METHODS AND COMPOSITIONS FOR THE PRODUCTION OF RHAMNOLIPID” (THE REGENTS OF THE UNIVERSITY OF CALIFORNIA, priority 2022, published 2023)
# Tests used:
# [1] = tested on: M. alcahphilum; assay: Antimicrobial activity of Ptet inducer anhydrotetracycline, evaluated on methanol; type: cell-based, Methylotuvimicrobium alcaliphilum
# Method: Luria-Bertani (LB) broth and agar plates are routinely used to culture E. coli cells at 37° C. For routine cultivation of M. alcahphilum strain WT (wild type) and its derivatives, Pi (π) media with 3% (w/v) NaCl is used as described in Collins and Kaluzhnaya.^56 When needed, kanamycin (Kan) is added to the growth medium at 100 μg/mL for ts. alcahphilum and 50 μg/mL for E. coli cultures. Ampicillin is added to the growth medium at 100 μg/mL. M alcahphilum cell cultures are grown as batch cultures, either 4 mL culture in 20 mL anaerobic glass tubes or 10 mL culture in 50 mL serum vials, under a methane (99.9%; Airgas): air atmosphere (1:1). Cell cultures are incubated at 30° shaking at 220 rpm. Cell growth is measured as optical density (OD 600 nm) using Spectronic 200E spectroscope at time points mentioned in results and discussion. Single colony isolates and transformant selections are performed on Pi media agar plates incubated in anaerobic jars (Oxoid; Remel) under a methane-air atmosphere (1:1). For M. alcahphilum (pDA17) induction, antimicrobial activity of Ptet inducer, anhydrotetracycline (aTC) is first evaluated (FIG. 7) on methanol, it is observed that aTC antimicrobial effect on M. alcahphilum is apparent at concentration >2.5 μg/mL. Thus, based on the observation and previous report 33 , concentration of 1 μg/mL aTC is used for optimal gene expression. […]
# [2] = tested on: M. alcaliphilum strain DSM19304 (WT); assay: Inhibitory effect of rhamnolipids on growth (OD600) of M. alcaliphilum wild type on CH4; type: cell-based, Methylotuvimicrobium alcaliphilum
# Excerpt: M. alcaliphilum converts methane by sequential oxidation to formaldehyde, which enters the central carbon metabolism through the RUMP pathway^39. M. alcaliphilum produces high amounts of glycogen, sucrose and ectoine with smaller amounts of lactate, formate, succinate and no known reports of RLs^38,40,41. Rhamnolipids are used as biocontrol/anti-microbial agents, and increasing rhamnolipid concentrations are found to negatively impact growth of Gram-negative and Gram-positive heterologous hosts, E. coli, Bacillus subtilis and Corynebacterium glutamicum^23. Therefore, M. alcaliphilum growth is tested in the presence of RLs. […] The RL toxicity to M. alcaliphilum is much higher than reported concentrations in other Gram-negative host like E. coli (>90 g/L). The toxicity of RLs to M. alcaliphilum required adaptive evolution to permit the strain to produce rhamnolipids.
# Luria-Bertani (LB) broth and agar plates are routinely used to culture E. coli cells at 37° C. For routine cultivation of M. alcahphilum strain WT (wild type) and its derivatives, Pi (π) media with 3% (w/v) NaCl is used as described in Collins and Kaluzhnaya.^56 When needed, kanamycin (Kan) is added to the growth medium at 100 μg/mL for ts. alcahphilum and 50 μg/mL for E. coli cultures. Ampicillin is added to the growth medium at 100 μg/mL. M alcahphilum cell cultures are grown as batch cultures, either 4 mL culture in 20 mL anaerobic glass tubes or 10 mL culture in 50 mL serum vials, under a methane (99.9%; Airgas): air atmosphere (1:1). Cell cultures are incubated at 30° shaking at 220 rpm. Cell growth is measured as optical density (OD 600 nm) using Spectronic 200E spectroscope at time points mentioned in results and discussion. Single colony isolates and transformant selections are performed on Pi media agar plates incubated in anaerobic jars (Oxoid; Remel) under a methane-air atmosphere (1:1). For M. alcahphilum (pDA17) induction, antimicrobial activity of Ptet inducer, anhydrotetracycline (aTC) is first evaluated (FIG. 7) on methanol, it is observed that aTC antimicrobial effect on M. alcahphilum is apparent at concentration >2.5 μg/mL. Thus, based on the observation and previous report 33 , concentration of 1 μg/mL aTC is used for optimal gene expression. M. alcahphilum (pDA17) cultures are induced with anhydrotetracycline (1 μg/mL) at time of inoculation^33.
# [3] = tested on: M. alcaliphilum strain DASS; assay: Rhamnolipid tolerance of the adapted strain after adaptive laboratory evolution; type: cell-based, Methylotuvimicrobium alcaliphilum
# Method: A course of adaptive laboratory evolution to allow M. alcaliphilum to grow on CH4 in the RLs is followed for four months. During this adaptation, M. alcaliphilum strain DSM19304 (hereafter referred as WT, wild type) is subjected to gradually increasing RL concentration starting from 0.5 g/L to 5 g/L (FIG. 2B). At the end of multiple transfers over a period of four months, an M. alcaliphilum strain tolerant to RLs (strain DASS) is obtained.
# M. alcahphilum strain DSM19304 is grown in batch cultures of 10 mL Pi media in 50 mL serum vials under a methane-air atmosphere at 30° C. with agitation at 200 rpm. To adapt the cells to grow in the presence of RLs, 0.5 g/L RL (90% mono-RL, Millipore Sigma) is supplemented to the starting cell culture. The concentration of RLs is increased gradually and stepwise (1, 1.5, 2, 3, 4 and 5 g/L) to achieve a final strain of M. alcahphilum tolerant to 5 g/L RL. A 0.1% inoculum is manually transferred from a growing batch culture to a fresh culture in 48-60h. The RL concentration in the media is increased to next higher concentration when the OD 600 nm at 48 h of the growing batch culture with RL reached similar OD600 to WT (>1.0) at the end of 48 h. After the adaptation, single colonies of M. alcahphilum strain DASS are isolated on Pi media agar plates. Multiple single colony isolates are confirmed to be M. alcahphilum via 16S rRNA sequencing to rule out possibility of co-contaminants. No differences are observed in growth of multiple single colonies that are tested, one clone is selected for further analysis and plasmid transformation.
# [4] = tested on: E. coli; conditions: literature; cited from earlier work
Compound,concentration at which antimicrobial effect is apparent [1],"growth inhibition ([2]; 1 g/L RL amendment, 36 hours of culture)",concentration inhibitory to growth ([2]; M. alcaliphilum DSM19304),"reduction in final optical density ([2]; medium amended with 0.1 g/L RL, 36 hours of culture)",MIC ([2]; parent strain DSM19304),"concentration of rhamnolipids that cannot be tolerated ([2]; strain DSM19304, surfactant effects)",fold higher concentration in which the adapted strain grows compared to parent strain ([3]; DASS vs parent strain),"tolerated rhamnolipid concentration ([3]; evolved strain DASS, grown on CH4, listed as RL)","growth with RL in the absence of CH4 (RL as carbon source) ([3]; strain DASS, 5 g/L RL, no CH4)",reported toxic concentration [4]
"Cc1c2c(c(O)c3c(O)cccc13)C(=O)[C@]1(O)C(=O)C(C(N)=O)=C(O)[C@@H](N(C)C)[C@@H]1C2 [aTC, anhydrotetracycline]",> 2.5 µg/mL,–,–,–,–,–,–,–,–,–
rhamnolipids,–,almost complete inhibition,< 0.05 g/L,50%,500 µg/mL,0.5 g/L,10 fold,5 g/L,did not promote growth,> 90 g/L
